Reference: paper PMC5218480 (PLoS ONE, 2017)

System: MV-4-11 cells
Experiment: Gene expression microarray analysis (Affymetrix PrimeView) and GSEA
Type: cell-based, human
Parameters: RFU PODN (11730768_x_at) / Fold change /veh PODN (11730768_x_at) / RFU LINC00158 (11744669_a_at) / Fold change /veh LINC00158 (11744669_a_at) / RFU DUSP10 (11751237_a_at) / Fold change /veh DUSP10 (11751237_a_at) / RFU ID3 (11757404_x_at) / Fold change /veh ID3 (11757404_x_at) / RFU PLEKHG5 (11737974_s_at) / Fold change /veh PLEKHG5 (11737974_s_at) / RFU LRRC4B (11730491_at) / Fold change /veh LRRC4B (11730491_at) / RFU GIMAP4 (11747438_a_at) / Fold change /veh GIMAP4 (11747438_a_at) / RFU KRT8 (11758183_x_at) / Fold change /veh KRT8 (11758183_x_at) / RFU CNN1 (11734310_a_at) / Fold change /veh CNN1 (11734310_a_at) / RFU VPS37D (11726825_at) / Fold change /veh VPS37D (11726825_at) / RFU C10orf10 (11716522_x_at) / Fold change /veh C10orf10 (11716522_x_at) / RFU KIR2DL2 /// KIR2DL4 /// KIR2DL5A /// KIR2DL5B /// KIR2DS1 /// KIR2DS2 /// KIR2DS3 /// KIR2DS4 /// KIR3DL3 /// KIR3DL3 /// KIR3DS1 (11738374_at) / Fold change /veh KIR2DL2 /// KIR2DL4 /// KIR2DL5A /// KIR2DL5B /// KIR2DS1 /// KIR2DS2 /// KIR2DS3 /// KIR2DS4 /// KIR3DL3 /// KIR3DL3 /// KIR3DS1 (11738374_at) / RFU C1QL1 (11718748_at) / Fold change /veh C1QL1 (11718748_at) / RFU TMPRSS4 (11747572_a_at) / Fold change /veh TMPRSS4 (11747572_a_at) / RFU HAMP (11756126_x_at) / Fold change /veh HAMP (11756126_x_at) / RFU RNFT2 (11725882_a_at) / Fold change /veh RNFT2 (11725882_a_at) / RFU NR4A2 (11747474_a_at) / Fold change /veh NR4A2 (11747474_a_at) / RFU ABCC12 (11746883_a_at) / Fold change /veh ABCC12 (11746883_a_at) / RFU TMEM136 (11760407_x_at) / Fold change /veh TMEM136 (11760407_x_at) / RFU CLDN22 /// WWC2 (11732394_at) / Fold change /veh CLDN22 /// WWC2 (11732394_at) / RFU HLA-DPB1 (11760878_x_at) / Fold change /veh HLA-DPB1 (11760878_x_at) / RFU SPINT1 (11716480_a_at) / Fold change /veh SPINT1 (11716480_a_at) / RFU GAP43 (11754022_s_at) / Fold change /veh GAP43 (11754022_s_at) / RFU A4GNT (11735810_at) / Fold change /veh A4GNT (11735810_at) / RFU PRB3 (11715151_x_at) / Fold change /veh PRB3 (11715151_x_at) / RFU TUBB4B (11761932_at) / Fold change /veh TUBB4B (11761932_at) / RFU CAPN14 (11732068_a_at) / Fold change /veh CAPN14 (11732068_a_at) / RFU TMCC2 (11721928_a_at) / Fold change /veh TMCC2 (11721928_a_at) / RFU IRGQ (11745062_a_at) / Fold change /veh IRGQ (11745062_a_at) / RFU FAM174B (11720279_a_at) / Fold change /veh FAM174B (11720279_a_at) / RFU TMPRSS4 (11748680_a_at) / Fold change /veh TMPRSS4 (11748680_a_at) / RFU FAM212B (11763350_a_at) / Fold change /veh FAM212B (11763350_a_at) / RFU PLEKHG5 (11743358_a_at) / Fold change /veh PLEKHG5 (11743358_a_at) / RFU ZSCAN30 (11745921_a_at) / Fold change /veh ZSCAN30 (11745921_a_at) / RFU CMKLR1 (11741424_a_at) / Fold change /veh CMKLR1 (11741424_a_at) / RFU LOC101060620 /// MAPK8IP1 (11723275_at) / Fold change /veh LOC101060620 /// MAPK8IP1 (11723275_at) / RFU SPTSSB (11747773_x_at) / Fold change /veh SPTSSB (11747773_x_at) / RFU PRSS12 (11739890_at) / Fold change /veh PRSS12 (11739890_at) / RFU BIN1 (11741810_x_at) / Fold change /veh BIN1 (11741810_x_at) / RFU WNT11 (11732464_a_at) / Fold change /veh WNT11 (11732464_a_at) / RFU C10orf10 (11716521_a_at) / Fold change /veh C10orf10 (11716521_a_at) / RFU C5orf56 (11738089_at) / Fold change /veh C5orf56 (11738089_at) / RFU CYB561 (11721691_x_at) / Fold change /veh CYB561 (11721691_x_at) / RFU ANKRD19P (11752326_a_at) / Fold change /veh ANKRD19P (11752326_a_at) / RFU OR2T12 /// OR2T33 /// OR2T8 (11738714_s_at) / Fold change /veh OR2T12 /// OR2T33 /// OR2T8 (11738714_s_at) / RFU VCAN (11748164_a_at) / Fold change /veh VCAN (11748164_a_at) / RFU JSRP1 (11732532_at) / Fold change /veh JSRP1 (11732532_at) / RFU KRTAP10-11 (11738290_x_at) / Fold change /veh KRTAP10-11 (11738290_x_at) / RFU MYO3A (11730013_a_at) / Fold change /veh MYO3A (11730013_a_at) / RFU EBF3 (11725865_a_at) / Fold change /veh EBF3 (11725865_a_at) / RFU CAMK2N1 (11719241_x_at) / Fold change /veh CAMK2N1 (11719241_x_at) / RFU C5orf56 (11738088_a_at) / Fold change /veh C5orf56 (11738088_a_at) / RFU OLFML3 (11715873_a_at) / Fold change /veh OLFML3 (11715873_a_at) / RFU LOC100653217 /// NTM (11731650_a_at) / Fold change /veh LOC100653217 /// NTM (11731650_a_at) / RFU MAPK11 (11762145_a_at) / Fold change /veh MAPK11 (11762145_a_at) / RFU FIZ1 (11724087_x_at) / Fold change /veh FIZ1 (11724087_x_at) / RFU OASL (11726364_x_at) / Fold change /veh OASL (11726364_x_at) / RFU SOX15 (11748057_x_at) / Fold change /veh SOX15 (11748057_x_at) / RFU CD79A (11719716_a_at) / Fold change /veh CD79A (11719716_a_at) / RFU HIST1H1D (11736915_at) / Fold change /veh HIST1H1D (11736915_at) / RFU CASKIN2 (11723855_a_at) / Fold change /veh CASKIN2 (11723855_a_at) / RFU LOC730098 (11760151_x_at) / Fold change /veh LOC730098 (11760151_x_at) / RFU OR4N2 (11742367_at) / Fold change /veh OR4N2 (11742367_at) / RFU PRRT2 (11749266_a_at) / Fold change /veh PRRT2 (11749266_a_at) / RFU SNX32 (11753110_a_at) / Fold change /veh SNX32 (11753110_a_at) / RFU CDHR5 (11726645_a_at) / Fold change /veh CDHR5 (11726645_a_at) / RFU RCAN1 (11760418_a_at) / Fold change /veh RCAN1 (11760418_a_at) / RFU FAM167A (11723789_a_at) / Fold change /veh FAM167A (11723789_a_at) / RFU FAM26E (11764081_at) / Fold change /veh FAM26E (11764081_at) / RFU ISYNA1 (11749810_s_at) / Fold change /veh ISYNA1 (11749810_s_at) / RFU ACY1 (11761880_at) / Fold change /veh ACY1 (11761880_at) / RFU 11764098_at / Fold change /veh 11764098_at / RFU SAMD14 (11745864_x_at) / Fold change /veh SAMD14 (11745864_x_at) / RFU NPB (11741838_a_at) / Fold change /veh NPB (11741838_a_at) / RFU TMPRSS6 (11731388_a_at) / Fold change /veh TMPRSS6 (11731388_a_at) / RFU KRTAP10-2 (11738614_at) / Fold change /veh KRTAP10-2 (11738614_at) / RFU ARHGAP8 /// PRR5-ARHGAP8 (11727945_x_at) / Fold change /veh ARHGAP8 /// PRR5-ARHGAP8 (11727945_x_at) / RFU KRTAP5-7 /// NADSYN1 (11734609_at) / Fold change /veh KRTAP5-7 /// NADSYN1 (11734609_at) / RFU RASL12 (11751679_a_at) / Fold change /veh RASL12 (11751679_a_at) / RFU CDKN2B (11736163_a_at) / Fold change /veh CDKN2B (11736163_a_at) / RFU PRF1 (11729649_at) / Fold change /veh PRF1 (11729649_at) / RFU, ZNF638 /// ZNF638-IT1 / Fold change vs veh, ZNF638 /// ZNF638-IT1 / RFU, PANK3 / Fold change vs veh, PANK3 / RFU, SH3YL1 / Fold change vs veh, SH3YL1 / RFU, ZEB2 / Fold change vs veh, ZEB2 / RFU, NRIP1 / Fold change vs veh, NRIP1 / RFU, PTTG1IP / Fold change vs veh, PTTG1IP / RFU, CAPN2 / Fold change vs veh, CAPN2 / RFU, MED14 / Fold change vs veh, MED14 / RFU, SNORA58 / Fold change vs veh, SNORA58 / RFU, C1orf63 / Fold change vs veh, C1orf63 / RFU, LRRFIP1 / Fold change vs veh, LRRFIP1 / RFU, NDUFAF7 / Fold change vs veh, NDUFAF7 / RFU, SLC12A2 / Fold change vs veh, SLC12A2 / RFU, IBTK / Fold change vs veh, IBTK / RFU, ESF1 / Fold change vs veh, ESF1 / Fold change vs veh, TMEM50B / RFU, TAOK1 / Fold change vs veh, TAOK1 / RFU, ACBD3 / Fold change vs veh, ACBD3 / RFU, TMA16 / Fold change vs veh, TMA16 / RFU, RWDD3 / Fold change vs veh, RWDD3 / RFU, BCAT1 / Fold change vs veh, BCAT1 / RFU, EDEM3 / Fold change vs veh, EDEM3 / RFU, TMEM33 / Fold change vs veh, TMEM33 / RFU, WDR75 / Fold change vs veh, WDR75 / RFU, AHCTF1 / Fold change vs veh, AHCTF1 / RFU, TFRC / Fold change vs veh, TFRC / RFU, ZDHHC17 / Fold change vs veh, ZDHHC17 / RFU, NOM1 / Fold change vs veh, NOM1 / RFU, ARL8B / Fold change vs veh, ARL8B / RFU, ZBTB11 / Fold change vs veh, ZBTB11 / RFU, TAMM41 / Fold change vs veh, TAMM41 / RFU, KIAA1704 /// LOC100996395 / Fold change vs veh, KIAA1704 /// LOC100996395 / RFU, ING1 / Fold change vs veh, ING1 / RFU, TRMT61B / Fold change vs veh, TRMT61B / RFU, FUBP3 / Fold change vs veh, FUBP3 / RFU, TP53 / Fold change vs veh, TP53 / RFU, TNKS2 / Fold change vs veh, TNKS2 / RFU, ZFP14 / Fold change vs veh, ZFP14 / RFU, ACTR2 / Fold change vs veh, ACTR2 / RFU, PPP3R1 / Fold change vs veh, PPP3R1 / RFU, PIK3R1 / Fold change vs veh, PIK3R1 / RFU, HNRNPA1 / Fold change vs veh, HNRNPA1 / RFU, RNF170 / Fold change vs veh, RNF170 / RFU, ZNF28 / Fold change vs veh, ZNF28 / RFU, RNGTT / Fold change vs veh, RNGTT / RFU, OGT / Fold change vs veh, OGT / RFU, BRD1 / Fold change vs veh, BRD1 / RFU, MARS / Fold change vs veh, MARS / RFU, ZNF655 / Fold change vs veh, ZNF655 / RFU, FAHD1 / Fold change vs veh, FAHD1 / RFU, BDP1 / Fold change vs veh, BDP1 / RFU, LRRCC1 / Fold change vs veh, LRRCC1 / RFU, ARID1A / Fold change vs veh, ARID1A / RFU, ZNF146 / Fold change vs veh, ZNF146 / RFU, ZNF330 / Fold change vs veh, ZNF330 / RFU, GPN3 / Fold change vs veh, GPN3 / RFU, C9orf123 / Fold change vs veh, C9orf123 / RFU, N4BP2L2 / Fold change vs veh, N4BP2L2 / RFU, ARFIP1 / Fold change vs veh, ARFIP1 / RFU, FAM179B / Fold change vs veh, FAM179B / RFU, BCL10 / Fold change vs veh, BCL10 / RFU, UHRF1BP1L / Fold change vs veh, UHRF1BP1L / RFU, BET1 / Fold change vs veh, BET1 / RFU, CNOT2 / Fold change vs veh, CNOT2 / RFU, ZNF268 / Fold change vs veh, ZNF268 / Fold change vs veh, ZNF507 / RFU, DGCR2 / Fold change vs veh, DGCR2 / RFU, WDSUB1 / Fold change vs veh, WDSUB1 / Fold change vs veh, HSP90B1 /// MIR3652 / RFU, ADSS / Fold change vs veh, ADSS / RFU, GK / Fold change vs veh, GK / RFU, ZNF148 / Fold change vs veh, ZNF148 / RFU, TAF9 / Fold change vs veh, TAF9 / RFU, SLC1A5 / Fold change vs veh, SLC1A5 / RFU, SLMO2 / Fold change vs veh, SLMO2 / RFU, ABCC4 / Fold change vs veh, ABCC4 / RFU, LOC101060439 /// RAP1B / Fold change vs veh, LOC101060439 /// RAP1B / RFU, RFX7 / Fold change vs veh, RFX7 / RFU, GTPBP10 / Fold change vs veh, GTPBP10 / RFU, CNEP1R1 / Fold change vs veh, CNEP1R1 / RFU, BIVM-ERCC5 /// ERCC5 / Fold change vs veh, BIVM-ERCC5 /// ERCC5 / RFU, ILF3 / Fold change vs veh, ILF3 / RFU 11762660_at / Fold change /veh 11762660_at / RFU VCAN (11757783_s_at) / Fold change /veh VCAN (11757783_s_at) / RFU DDX43 (11728927_at) / Fold change /veh DDX43 (11728927_at) / RFU KRT8 (11758188_x_at) / Fold change /veh KRT8 (11758188_x_at) / RFU NKD1 (11759106_at) / Fold change /veh NKD1 (11759106_at) / RFU SRD5A1 (11742802_a_at) / Fold change /veh SRD5A1 (11742802_a_at) / RFU TPSAB1 /// TPSB2 (11721975_s_at) / Fold change /veh TPSAB1 /// TPSB2 (11721975_s_at) / RFU GSTM3 (11746129_a_at) / Fold change /veh GSTM3 (11746129_a_at) / RFU IL23R (11737362_x_at) / Fold change /veh IL23R (11737362_x_at) / RFU TMEM51 (11727254_a_at) / Fold change /veh TMEM51 (11727254_a_at) / RFU PIWIL2 (11732686_x_at) / Fold change /veh PIWIL2 (11732686_x_at) / RFU ORM1 (11744905_x_at) / Fold change /veh ORM1 (11744905_x_at) / RFU CCDC152 (11743942_at) / Fold change /veh CCDC152 (11743942_at) / RFU ECM1 (11717891_a_at) / Fold change /veh ECM1 (11717891_a_at) / RFU IL23R (11748794_a_at) / Fold change /veh IL23R (11748794_a_at) / RFU TNFAIP8L3 (11732012_x_at) / Fold change /veh TNFAIP8L3 (11732012_x_at) / RFU MBOAT4 (11741988_at) / Fold change /veh MBOAT4 (11741988_at) / RFU 11764193_at / Fold change /veh 11764193_at / RFU TMEM53 (11763286_at) / Fold change /veh TMEM53 (11763286_at) / RFU MAGEB2 (11727129_at) / Fold change /veh MAGEB2 (11727129_at) / RFU TMEM200A (11744735_a_at) / Fold change /veh TMEM200A (11744735_a_at) / RFU CCDC152 (11751479_a_at) / Fold change /veh CCDC152 (11751479_a_at) / RFU FAM211A (11726209_a_at) / Fold change /veh FAM211A (11726209_a_at) / RFU RGS16 (11746705_a_at) / Fold change /veh RGS16 (11746705_a_at) / RFU VCAN (11755009_s_at) / Fold change /veh VCAN (11755009_s_at) / RFU RHOB (11743442_s_at) / Fold change /veh RHOB (11743442_s_at) / RFU RGS16 (11720943_a_at) / Fold change /veh RGS16 (11720943_a_at) / RFU RGS16 (11720944_at) / Fold change /veh RGS16 (11720944_at) / RFU, VPS4B / Fold change vs veh, VPS4B / RFU, CREB1 / Fold change vs veh, CREB1 / RFU, DNAJC13 / Fold change vs veh, DNAJC13 / RFU, GNAQ / Fold change vs veh, GNAQ / RFU, CDK5R1 / Fold change vs veh, CDK5R1 / RFU, ZRANB3 / Fold change vs veh, ZRANB3 / RFU, CUL4A / Fold change vs veh, CUL4A / RFU, CCNY / Fold change vs veh, CCNY / RFU, UFL1 / Fold change vs veh, UFL1 / RFU, COG3 / Fold change vs veh, COG3 / RFU, DIAPH2 / Fold change vs veh, DIAPH2 / RFU, SKA2 / Fold change vs veh, SKA2 / RFU, AFF3 / Fold change vs veh, AFF3 / RFU, LMF1 / Fold change vs veh, LMF1 / RFU, IPO11 / Fold change vs veh, IPO11 / RFU, DFFB / Fold change vs veh, DFFB / RFU, FOXP1 / Fold change vs veh, FOXP1 / RFU, CARD8 / Fold change vs veh, CARD8 / RFU, STRN3 / Fold change vs veh, STRN3 / RFU, ADK / Fold change vs veh, ADK / RFU, RASSF2 / Fold change vs veh, RASSF2 / RFU, WIPF1 / Fold change vs veh, WIPF1 / RFU, LARP1B / Fold change vs veh, LARP1B / RFU, RASA1 / Fold change vs veh, RASA1 / RFU, RB1 / Fold change vs veh, RB1 / RFU, PPFIA1 / Fold change vs veh, PPFIA1 / RFU, MAT2A / Fold change vs veh, MAT2A / RFU, CCT5 / Fold change vs veh, CCT5 / RFU, WDR92 / Fold change vs veh, WDR92 / RFU, CUX1 / Fold change vs veh, CUX1 / RFU, TTC7A / Fold change vs veh, TTC7A / RFU, TMEM135 / Fold change vs veh, TMEM135 / RFU, DEPTOR / Fold change vs veh, DEPTOR / RFU, CPM / Fold change vs veh, CPM / RFU, DNAJB6 / Fold change vs veh, DNAJB6 / RFU, CACNA2D3 / Fold change vs veh, CACNA2D3 / RFU, DTX4 / Fold change vs veh, DTX4 / RFU, TFCP2 / Fold change vs veh, TFCP2 / RFU, GMCL1 /// GMCL1P1 / Fold change vs veh, GMCL1 /// GMCL1P1 / RFU, AEBP2 / Fold change vs veh, AEBP2 / RFU, SNHG1 /// SNORD22 /// SNORD25 /// SNORD26 /// SNORD27 /// SNORD28 /// SNORD29 /// SNORD31 / Fold change vs veh, SNHG1 /// SNORD22 /// SNORD25 /// SNORD26 /// SNORD27 /// SNORD28 /// SNORD29 /// SNORD31 / Fold change (Aza/veh), C12orf56 (ProbeSet 11735607_a_at) / Fold change (ACY-1035/veh), C12orf56 (ProbeSet 11735607_a_at) / Fold change (Aza/veh), FGFR1OP (ProbeSet 11751329_s_at) / Fold change (ACY-1035/veh), FGFR1OP (ProbeSet 11751329_s_at) / Fold change (Aza/veh), VPS36 (ProbeSet 11739960_a_at) / Fold change (ACY-1035/veh), VPS36 (ProbeSet 11739960_a_at) / RFU SYPL1 (11715823_x_at) / Fold change /veh SYPL1 (11715823_x_at) / RFU IGFBP7 (11715501_s_at) / Fold change /veh IGFBP7 (11715501_s_at) / RFU REEP3 (11722064_at) / Fold change /veh REEP3 (11722064_at) / RFU IGLL1 (11728026_x_at) / Fold change /veh IGLL1 (11728026_x_at): dose or concentration left out as unconfirmed
Settings: ProbeSet 11738335_x_at; LIST B

`Nc1ccc(-c2cccs2)cc1NC(=O)c1ccc2c(c1)cc(C1CC1)n2CCN1CCOCC1` [ACY-1035] was tested, and the “RFU, TP53” value was 73.59 RFU.
